The target of assay [1] is T1, PLA2 activity in human synovial fluid (HSF) (Homo sapiens, UniProt P14555).
T1 construct: Synovial fluid was obtained from patients with rheumatoid arthritis; from tissue; host or cells: cell-depleted synovial fluid of patients with rheumatoid arthritis
T1 sequence (P14555 21-144): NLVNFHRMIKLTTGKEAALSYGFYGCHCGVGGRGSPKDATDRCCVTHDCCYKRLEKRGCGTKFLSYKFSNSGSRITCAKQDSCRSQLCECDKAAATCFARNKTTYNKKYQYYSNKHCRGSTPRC
Kind of assay: Phospholipase A2 (PLA2) enzymatic assay - % Inhibition of HSF-PLA2. The assay is classed as biochemical. Conditions: for inhibition at 5 µM: read-out: % Inhib. of HSF-PLA2 at 5 μM. An excerpt:
1, Phospholipase A2 (PLA2) enzymatic assay - % Inhibition of HSF-PLA2
PLA2 assay procedure described by Hope et al., Inflammation 14:543-559 (1.990) was utilized to measure the inhibitory activity of the invention (inhibitor) against PLA2 activity in human synovial fluid (HSF). Synovial fluid was obtained from patients with rheumatoid arthritis. The assay procedure measured the release of [1-^14 C]oleic acid from the sn-2 position of phospholipids in autoclaved Escherichia coli previously grown in media containing [1-^14 C]oleic acid. The standard assay reaction conditions included 1×10^9 Escherichia coil (10,000 dpm ^14 C), 0.15% (v/v) cell-depleted HSF, (which was equivalent to 66 μg protein/mL) 2 mM CaCl2, 150 mM NaCl, 50 mM sodium (N-[2-hydroxyethyl] piperazine-N'-[2-ethanesulfonate]) (HEPES) buffer (pH 7.3), 1% dimethyl sulfoxide (DMSO) and various concentrations of inhibitor in a total volume of 0.5 ml. Inhibitors were dissolved in DMSO and added. The reaction was initiated by addition of HSF, incubated for 30 min at 37° C. and then stopped by addition of 2.5 ml of chloroform/methanol (1:1.5, v/v). The total lipids were extracted by the method of Bligh, E. G., and Dyer, W. J, Can. J. Biochem. Physiol. 37:911-917 (1959) by the further addition of 0.5 mL of chloroform and 1 mL of water with mixing. The lipid extract was redissolved in chloroform/methanol (9:1, v/v) containing 10 ug of carrier oleic acid. The oleic acid was separated from phospholipids by thin layer chromatography using gel-impregnated glass fiber sheets (ITLC type SG sheets). The sheets were preactivated by heating at 110° C. for 30 min. The lipid extract was applied to the sheets and chromatographed for 6 minutes, using hexane/acetic acid (100:1, v/v). The positions on the sheet containing oleic acid and phospholipids were visualized by exposure to iodine vapor and located by comparison to standards. The oleic acid and phospholipid zones were cut from the sheets, shaken individually with 2 ml of ethanol/water (80:20, v/v) and 15 ml of Aquasol, then counted for [^14 C] radioactivity (dpm). PLA2 activity, expressed as percent hydrolysis, was calculated from the formula: [formula] and was corrected for nonenzymatic hydrolysis of the substrate. Percent inhibition due to the presence of drug was calculated from the formula: [formula]
When various concentrations of a Compound of Formula I were tested, the percent inhibition at each concentration was plotted as log concentration (abscissa) versus percent inhibition (ordinate) and the IC50 was determined from this plot.

Assay [2] relates to carrageenan-induced paw edema in rats. Description: Carrageenan-induced paw edema model of inflammation. The assay is classed as in vivo. Conditions: rat; for inhibition in vivo at 10 mg/kg: 10 mg/Kg ip; for inhibition in vivo at 10 mg/kg / inhibition in vivo at 100 mg/kg / inhibition in vivo at 20 mg/kg / inhibition in vivo at 30 mg/kg: 2 hr, read-out: Carrageenan ind. paw edema % Inhib. 2 hr; for inhibition in vivo at 100 mg/kg: 100 mg/Kg po.

A further assay relates to cellular PLA2. Kind of assay: Inhibition of Cellular Phospholipase A2 (A23187-stimulated macrophages). Conditions: 5 μM; rat peritoneal macrophages, A-23187 stimulated. The class given is cell-based. The procedure:
II. Inhibition of Cellular Phospholipase A2. - % Inhibition of Cellular PLA2
Resident macrophages were obtained from rats by peritoneal lavage with phosphate buffered saline minus Ca2^++ and Mg2^++ (PBS). Cells were washed 3 times with PBS and resuspended in Dulbecco's Modified Eagle's Medium (GiBco) containing L-glutamine low D-glucose (1000 mg/L), and sodium pyruvate (110 mg/L), supplemented with 10% fetal calf serum. Cells were counted on a Coulter ZBI cell counter and then resuspended to a concentration of 6×10^6 cells/1.5 ml. The cell suspension (1.5 ml culture dishes (35 mm) and the cells were allowed to adhere to the dishes for 90 minutes at 37° C. Dishes were washed 3 times with PBS to remove non-adherent cells. [^14 C]arachidonic acid ([^14 C]-AA, approximately […], were added to the cells (1 uCi/dish) and allowed to incorporate for 120 minutes. Medium containing unincorporated [^14 C]-AA was removed and the cell layer was again washed 3 times with PBS. Inhibitors were dissolved in dimethylsulfoxide (DMSO) and added directly to the macrophages in Hank's Balanced Salt Solution (GiBco) phosphate-buffered, pH 7.4) to obtain the desired final concentration. Cells were incubated with drug or DMSO for 30 minutes at 37° C. and were then stimulated with calcium-ionophore A-23187 (0.75 uM) for 20 minutes. The extracellular medium was removed and the [^14 C] radioactivity released into this medium from AA metabolism was measured by liquid scintillation spectroscopy. The amounts of LTB4 and PGE2 were measured in the extracellular medium by radio immunoassay with specific antisera. The effects of inhibitor were measured as percent inhibition of A23187- stimulated AA metabolite release (^14 C release, PGE2 and LTB4 production) (control) which were calculated from the formula: [formula] IC50 's were calculated as described in the HSF-PLA2 assay.

Results on 13 compounds are retold here after patent publication US5451600A, “Substituted tetrahydrobenzopyrrolylfuranoic acid derivatives as phospholipase A2 inhibitors” (Hoffmann-La Roche Inc., priority 1994, dated 1995).

Where two headings read alike, the source gives them in different places.

Turning to `CCCCCCCCn1c2c(c3cc(/C=C(\C)c4ccc(C(=O)O)o4)ccc31)CCCC2(C)C` [Example 53, (E)-5-[1-methyl-2-(1,2,3,4-tetrahydro-1,1-dimethyl-9-octyl-9H-dibenzo[b,d]pyrrol-6-yl)ethenyl]-2-furancarboxylic acid], the inhibition at 5 µM in assay [1] was 73%. Also, in assay [2], the inhibition in vivo at 10 mg/kg was 68% and the inhibition in vivo at 100 mg/kg came to 55%. Besides, the “% Inhib. of cellular PLA2 at 5 μM” value in the assay with cellular PLA2 is recorded as 63%.

As to `CCCCCCCCn1c2c(c3cc(CCc4ccc(C(=O)O)o4)ccc31)CCCC2` [Example 55, 5-[2-(1,2,3,4-tetrahydro-9-octyl-9H-dibenzo[b,d]pyrrol-6-yl)ethyl]-2-furancarboxylic acid], the inhibition at 5 µM in assay [1] amounted to 73%. For the same compound, in assay [2], the inhibition in vivo at 10 mg/kg came out at 59% and the inhibition in vivo at 100 mg/kg turned out to be 49%. Moreover, the “% Inhib. of cellular PLA2 at 5 μM” value in the assay with cellular PLA2 was 91%.

For the compound `CCCCCCCCn1c2c(c3ccc(Oc4ccc(C(=O)O)o4)cc31)CCCC2` [Example 133, 5-[(1,2,3,4-tetrahydro-9-octyl-9H-dibenzo[b,d]pyrrol-7-yl)oxy]-2-furancarboxylic acid], the inhibition at 5 µM in assay [1] came to 31%. In addition, the inhibition in vivo at 100 mg/kg in assay [2] worked out at 58%. Besides, in the assay on cellular PLA2, the “% Inhib. of cellular PLA2 at 5 μM” value is recorded as 85%.

Turning to `CCCCCCCCn1c2c(c3cc(Oc4ccc(C(=O)O)o4)ccc31)CCCC2(C)C` [Example 134, 5-[(1,2,3,4-tetrahydro-1,1-dimethyl-9-octyl-9H-dibenzo[b,d]pyrrol-6-yl)oxy]-2-furancarboxylic acid], in assay [1], the inhibition at 5 µM stood at 86%. For the same compound, the inhibition in vivo at 20 mg/kg in assay [2] (20 mg/Kg ip) came to 36%. In addition, the inhibition in vivo at 100 mg/kg in assay [2] stood at 48%. For the same compound, in the assay on cellular PLA2, the “% Inhib. of cellular PLA2 at 5 μM” value is reported as 94%.

Consider `O=C(O)c1ccc(Oc2ccc3c(c2)c2c(n3Cc3ccc(Cl)cc3)CCCC2)o1` [Example 139, 5-[[1,2,3,4-tetrahydro-9-(4-chlorophenyl)methyl-9H-dibenzo[b,d]pyrrol-6-yl]oxy]-2-furancarboxylic acid], for which the inhibition at 5 µM in assay [1] came out at 31%. Further, in assay [2] (30 mg/Kg ip), the inhibition in vivo at 30 mg/kg was 68%. Further, the “% Inhib. of cellular PLA2 at 5 μM” value with cellular PLA2 amounted to 100%.

For the compound `CCCCCCCCCn1c2c(c3cc(Oc4ccc(C(=O)O)o4)ccc31)CCCC2` [Example 142, 5-[(1,2,3,4-tetrahydro-9-nonyl-9H-dibenzo[b,d]pyrrol-6-yl)oxy]-2-furancarboxylic acid], the inhibition at 5 µM in assay [1] was 83%. Also, in assay [2] (30 mg/Kg po), the inhibition in vivo at 30 mg/kg came to 48%. The “% Inhib. of cellular PLA2 at 5 μM” value with cellular PLA2 is listed as 90%.

In the case of `O=C(O)c1ccc(Oc2ccc3c(c2)c2c(n3CCCCc3ccccc3)CCCC2)o1` [Example 145, 5-[[1,2,3,4-tetrahydro-9-(4-phenylbutyl)-9H-dibenzo[b,d]pyrrol-6-yl]oxy]-2-furancarboxylic acid], in assay [1] (human synovial fluid PLA2, 30 min at 37° C., pH 7.3), the IC50 is 4.8 µM. For the same compound, the inhibition at 5 µM in assay [1] was found to be 47%. Besides, in assay [2] (30 mg/Kg ip), the inhibition in vivo at 30 mg/kg stood at 43%. For the same compound, the “% Inhib. of cellular PLA2 at 5 μM” value in the assay on cellular PLA2 came out at 99%.

As to `O=C(O)c1ccc(Oc2ccc3c(c2)c2c(n3Cc3ccc(F)cc3)CCCC2)o1` [Example 146, 5-[[9-[(4-fluorophenyl)methyl]-1,2,3,4-tetrahydro-9H-dibenzo[b,d]pyrrol-6-yl]oxy]-2-furancarboxylic acid], the inhibition at 5 µM in assay [1] stood at 37%. In assay [2] (30 mg/Kg ip), the inhibition in vivo at 30 mg/kg was determined as 51%. For the same compound, the inhibition in vivo at 100 mg/kg in assay [2] turned out to be 33%. The “% Inhib. of cellular PLA2 at 5 μM” value in the assay with cellular PLA2 came out at 98%.

In the case of `O=C(O)c1ccc(Oc2ccc3c(c2)c2c(n3Cc3cccc(F)c3)CCCC2)o1` [Example 147, 5-[[9-[(3-fluorophenyl)methyl]-1,2,3,4-tetrahydro-9H-dibenzo[b,d]pyrrol-6-yl]oxy]-2-furancarboxylic acid], the inhibition at 5 µM in assay [1] was determined as 37%. Besides, the inhibition in vivo at 30 mg/kg in assay [2] (30 mg/Kg ip) amounted to 49%. Also, the “% Inhib. of cellular PLA2 at 5 μM” value in the assay on cellular PLA2 is recorded as 94%.

As for `COc1ccc(Cn2c3c(c4cc(Oc5ccc(C(=O)O)o5)ccc42)CCCC3)cc1` [Example 149, 5-[[1,2,3,4-tetrahydro-9-[(4-methoxyphenyl)methyl]-9H-dibenzo[b,d]pyrrol-6-yl]oxy]-2-furancarboxylic acid], the inhibition at 5 µM in assay [1] came to 62%. The inhibition in vivo at 30 mg/kg in assay [2] (30 mg/Kg ip) stood at 48%. Also, the “% Inhib. of cellular PLA2 at 5 μM” value with cellular PLA2 turned out to be 99%.

As to `COc1ccc(Cn2c3c(c4cc(Oc5ccc(C(=O)O)o5)ccc42)CCCC3)cc1OC` [Example 150, 5-[[1,2,3,4-tetrahydro-9-[(3,4-dimethoxyphenyl)methyl]-9H-dibenzo[b,d]pyrrol-6-yl]oxy]-2-furancarboxylic acid], the inhibition at 5 µM in assay [1] worked out at 42%. Further, the inhibition in vivo at 30 mg/kg in assay [2] (30 mg/Kg ip) was 45%. Moreover, the “% Inhib. of cellular PLA2 at 5 μM” value in the assay with cellular PLA2 is given as 96%.

With `CCCCCCCCn1c2c(c3cc(C(=O)c4ccc(C(=O)O)o4)ccc31)CCCC2` [Example 157, 5-[(1,2,3,4-tetrahydro-9-octyl-9H-dibenzo[b,d]pyrrol-6-yl)carbonyl]-2-furancarboxylic acid], the inhibition at 5 µM in assay [1] was determined as 40%. The inhibition in vivo at 20 mg/kg in assay [2] (20 mg/Kg ip) turned out to be 41%. The inhibition in vivo at 100 mg/kg in assay [2] stood at 44%. In addition, in the assay with cellular PLA2, the “% Inhib. of cellular PLA2 at 5 μM” value is listed as 68%.

For “(E)-5-[2-(1,2,3,4-tetrahydro-3,3dimethyl-9-octyl-9 H-dibenzo[b,d]-pyrrol-6yl)ethenyl]-2-furancarboxylic acid [Example 45]”, the “% Inhib. of HSF-PLA2 at 5 μM” value in assay [1] (5 μM) amounted to 86%. For the same compound, the “Carrageenan ind. paw edema % Inhib. 2 hr” value in assay [2] (20 mg/Kg ip) turned out to be 46%. In addition, the “% Inhib. of cellular PLA2 at 5 μM” value with cellular PLA2 was 53%.
